Marks after values point to notes of the source that are not given here.
Key:
[1] = system: highly purified tubulin (tubulin heterodimer); test: Competitive binding test, [3H]vinblastine; design: species or system bovine; settings: competitor 100 μM, [3H]vinblastine 100 nM, percent of binding to control without competitor
Experimental: (§1) Medium is RPMI-1640 with L-glutamine, supplemented with 10% heat-inactivated fetal calf serum, 100 units/mL penicillin, and 100 μg/mL streptomycin (Gibco, Grand Island, N.Y.). Microtubule-associated protein (MAP)-rich tubulin, containing about 70% tubulin and 30% MAPs (#ML113), and highly purified tubulin (>99% pure, #TL238), both from bovine brain, are obtained from Cytoskeleton, Inc., Denver, Colo. PEM buffer (80 mM piperazine-N,N′-bis[2-ethanesulfonic acid], pH 6.9, 1 mM ethylene glycol-bis(β-aminoethyl ether)-N,N,N′,N′-tetraacetic acid, 1 mM magnesium chloride) and guanosine 5′-triphosphate (GTP) are also obtained from Cytoskeleton. […] [^3H]vinblastine, specific activity 9.60 Ci/mmol and MicroSpin G-50 columns are obtained from Amersham Biosciences (Piscataway, N.J.). […] Other reagents are obtained from Sigma (St. Louis, Mo.).
(§2) The binding of examples of this invention to highly purified tubulin is studied by competitive inhibition methods.
(§3) These solutions are incubated at 24° for 1 hr and then applied to MicroSpin G-50 columns which are centrifuged for 2 min at 3000 rpm in an Eppendorf 5415C microfuge. An aliquot of each column effluent (containing tubulin and bound radioligand) is mixed with scintillation fluid and counted in a liquid scintillation spectrometer. […] Quadruplicates are averaged, and the ability of the competitor to inhibit the binding of the radioligand is expressed as a percentage of control binding in the absence of any competitor.

[2] = system: highly purified tubulin (tubulin heterodimer); test: Competitive binding test, [3H]colchicine; design: species or system bovine; settings: competitor 100 μM, [3H]colchicine 50 nM, percent of binding to control without competitor
Experimental: as §1, §2, §3

[3] = system: polymerized tubulin (microtubules); test: Competitive binding test, [3H]paclitaxel; design: species or system bovine; settings: competitor 20 μM (5 μM for unlabeled paclitaxel)
Experimental: as §1, §2
The reactions are then centrifuged at top speed in an Eppendorf 5415C microfuge for 20 min at room temperature in order to pellet the microtubule protein. Triplicate aliquots of each supernatant are mixed with scintillation fluid and counted in a liquid scintillation spectrometer. […] The ability of each competitor to inhibit radioligand binding to pelleted protein is expressed as a percent of controls without any competitor.

[4] = system: HL-60/ADR cells; test: MTS cytotoxicity test with HL-60/ADR cells (MRP1); type: cell-based, human; settings: for IC50: HL-60/ADR cells, mean of 2 experiments; for Ratio: IC50 on HL-60/ADR cells/IC50 on HL-60 cells
Source text: Human cancer cell lines, unless otherwise noted, are obtained from the American Type Culture Collection (Rockville, Md.). The following drug-sensitive parental cell lines, and their derived drug-resistant counterparts, are obtained from the originators as listed: (a) S1 (parental line from a subclone of human colon carcinoma line LS174T) and derived S1-M1-3.2 (herein called S1-M1) which expresses the MXR drug transporter protein, are provided by Dr. L. Greenberger, Wyeth Research (Rabindran, S. K., He, H., Singh, M., Brown, E., Collins, K. I., Annable, T., and Greenberger, L. M. Reversal of a novel multidrug resistance mechanism in human colon carcinoma cells by fumitremorgin C. Cancer Res., 58: 5850-5858, 1998); (b) parental HL-60 human promyelocytic leukemia line and derived HL-60/ADR, which expresses the MRP1 drug transporter protein, are provided by Dr. M. Center, University of Kansas (McGrath, T., and Center, M. S. Adriamycin resistance in HL60 cells in the absence of detectable P-glycoprotein. Biochem. Biophys. […] J. Biol. Chem., 261: 7762-7770, 1986) via Dr. L. Greenberger, Wyeth Research.
The assay, which is sold in kit form by Promega (Madison, Wis.; CellTiter 96 AQueous Non-Radioactive Cell Proliferation Assay), is based on the conversion by viable cells, but not by dead cells, of the tetrazolium salt, MTS (3-(4,5-dimethylthiazol-2-yl)-5-(3-carboxymethoxyphenyl)-2-(4-sulphophenyl)-2H-tetrazolium, inner salt), into a water-soluble colored formazan which is detected by spectrophotometry. Compounds are tested at nine concentrations, in order to determine IC50 values. For the test procedure, cells are harvested by trypsinization, washed, counted and distributed to wells of 96-well flat-bottom microtiter plates at 1000 cells per well in 200 μL of medium. In addition, one row of wells on a separate plate receives cells as above (“time 0” plate). All plates are incubated at 37° in humidified 5% CO2 in air for about 24 hr.
On day 2, compounds for test are diluted and added to wells. Compounds are dissolved in DMSO at 10 mg/mL. For each compound, nine serial 2-fold dilutions are prepared in DMSO. Ten μL of each dilution in DMSO are transferred to 100 μL of medium, mixed well, and then 5 μL of this dilution are transferred in quadruplicate to wells containing cells. […] Plates are returned to the incubator for three days. At the time of drug addition to the experimental plates, the MTS assay is run on the “time 0” plate. This produces the “time 0 MTS value” which is related to the number of viable cells per well at the time of drug addition.
After three days of culture with test compounds (day 5 overall), the MTS assay is done on all wells of the experimental plates. The absorbance values of the quadruplicate sample wells are averaged and divided by the average of the “time 0” values. […] The nine values for each compound are plotted against concentration, and the concentration that produces a relative color yield half way between the maximum and minimum is taken as the IC50 value.
HL-60/ADR cells overexpress the multidrug resistance protein MRP1 which mediates resistance to some chemotherapeutics (Gottesman, M. M., Fojo, T., and Bates, S. E. Multidrug resistance in cancer: role of ATP-dependent transporters. Nature Rev. Cancer, 2: 48-58, 2002). The IC50 values of representative examples of this invention, as well as reference compounds, on HL-60/ADR are compared to values on the sensitive parental HL-60 line.

[5] = system: DLD1 Human Colon Carcinoma; test: Human tumor xenograft test, DLD1 colon carcinoma; type: in vivo, athymic mice; settings: for T/C on day 0 / T/C on day 7 / T/C on day 14: schedule days 1, 7, DLD1
[6] = system: U87-MG Human Glioblastoma; test: Human tumor xenograft test, U87-MG glioblastoma; type: in vivo, athymic mice; settings: for T/C on day 0 / T/C on day 3 / T/C on day 7 / T/C on day 10: schedule day 1, U87-MG
[7] = U87-MG glioblastoma, intravenously on day 1 with 5 mg/kg

Compound: CC(=O)O[C@H]1C(=O)[C@@]2(C)[C@H]([C@H](OC(=O)c3ccccc3)[C@]3(O)C[C@H](OC(=O)[C@H](O)[C@@H](NC(=O)c4ccccc4)c4ccccc4)C(C)=C1C3(C)C)[C@]1(OC(C)=O)CO[C@@H]1C[C@@H]2O [Paclitaxel, reference compound]
- [3H]Vinblastine binding, Mean [1]: 92 % of control
- [3H]Colchicine binding, Mean [2]: 93 % of control
- [3H]Paclitaxel binding, Mean [3]: 35 % of control
- IC50 ([4]; Homo sapiens, HL60/ADR): 3.5 nM

Compound: CNCCCOc1cc(F)c(-c2c(Cl)nc(-c3ccccn3)nc2N[C@@H](C)C(F)(F)F)c(F)c1.Cl [Example 29a, 6-Chloro-5-{2,6-difluoro-4-[3-(methylamino)propoxy]phenyl}-2-pyridin-2-yl-N-[(S)-2,2,2-trifluoro-1-methylethyl]pyrimidin-4-amine hydrogen chloride]
- T/C on day 0 ([5]; 1 mg/kg IV): 1.0
- T/C on day 7 ([5]; 1 mg/kg IV): 0.63*
- T/C on day 14 ([5]; 1 mg/kg IV): 0.71*
- T/C on day 0 ([5]; 1 mg/kg PO): 1.0
- T/C on day 7 ([5]; 1 mg/kg PO): 1.40
- T/C on day 14 ([5]; 1 mg/kg PO): 1.02
- T/C on day 0 ([5]; 5 mg/kg IV): 1.0
- T/C on day 7 ([5]; 5 mg/kg IV): 0.22**
- T/C on day 14 ([5]; 5 mg/kg IV): Toxic
- T/C on day 0 ([5]; 5 mg/kg PO): 1.0
- T/C on day 7 ([5]; 5 mg/kg PO): 0.79
- T/C on day 14 ([5]; 5 mg/kg PO): 0.59*
- IC50 ([4]; Homo sapiens, HL60/ADR): 6.8 nM
- Ratio [4]: 1.0

Compound: CC[C@]1(O)C[C@H]2CN(CCc3c([nH]c4ccccc34)[C@@](C(=O)OC)(c3cc4c(cc3OC)N(C=O)[C@H]3[C@@](O)(C(=O)OC)[C@H](OC(C)=O)[C@]5(CC)C=CCN6CC[C@]43[C@@H]65)C2)C1 [Vincristine, reference compound]
- [3H]Vinblastine binding, Mean [1]: 5 % of control
- [3H]Vinblastine binding, Mean ([1]; listed as vincristine): inhibits [^3H]vinblastine binding
- [3H]Colchicine binding, Mean [2]: 99 % of control
- IC50 ([4]; Homo sapiens, HL60/ADR): 24 nM
- Ratio [4]: 9.6

Compound: CNCCCOc1cc(F)c(-c2c(Cl)nc(-n3cccn3)nc2N[C@@H](C)C(F)(F)F)c(F)c1.Cl [Example 32a, 6-Chloro-5-{2,6-difluoro-4-[3-(methylamino)propoxy]phenyl}-2-(1H-pyrazol-1-yl)-N-[(1S)-2,2,2-trifluoro-1-methylethyl)pyrimidin-4-amine Hydrogen Chloride]
- IC50 ([4]; Homo sapiens, HL60/ADR): 2.2 nM
- Ratio [4]: 0.8

Compound: CNCCCOc1cc(F)c(-c2c(Cl)nc(-c3cnccn3)nc2N[C@@H](C)C(F)(F)F)c(F)c1.Cl [Example 24a, 6-Chloro-5-{2,6-difluoro-4-[3-(methylamino)propoxy]phenyl}-2-pyrazin-2-yl-N-[(1S)-2,2,2-trifluoro-1-methylethyl]pyrimidin-4-amine hygrogen chloride]
- T/C on day 0 ([5]; 5 mg/kg IV): 1.0
- T/C on day 7 ([5]; 5 mg/kg IV): 0.24**
- T/C on day 14 ([5]; 5 mg/kg IV): Toxic
- T/C on day 0 ([5]; 5 mg/kg PO): 1.0
- T/C on day 7 ([5]; 5 mg/kg PO): 1.07
- T/C on day 14 ([5]; 5 mg/kg PO): 0.85
- T/C on day 0 ([5]; 10 mg/kg IV): 1.0
- T/C on day 7 ([5]; 10 mg/kg IV): Toxic
- T/C on day 0 ([5]; 10 mg/kg PO): 1.0
- T/C on day 7 ([5]; 10 mg/kg PO): 0.82
- T/C on day 14 ([5]; 10 mg/kg PO): 0.28**
- growth of tumor ([5]; DLD1 colon carcinoma, orally on days 1 and 7 at 10 mg/kg/dose): inhibits the growth
- T/C on day 0 ([6]; 1 mg/kg IV): 1.03
- T/C on day 3 ([6]; 1 mg/kg IV): 0.71*
- T/C on day 7 ([6]; 1 mg/kg IV): 0.75
- T/C on day 10 ([6]; 1 mg/kg IV): 0.86
- T/C on day 0 ([6]; 5 mg/kg IV): 1.04
- T/C on day 3 ([6]; 5 mg/kg IV): 0.41**
- T/C on day 7 ([6]; 5 mg/kg IV): 0.21**
- T/C on day 10 ([6]; 5 mg/kg IV): 0.17**
- T/C on day 0 ([6]; 10 mg/kg IV): 1.04
- T/C on day 3 ([6]; 10 mg/kg IV): 0.31**
- T/C on day 7 ([6]; 10 mg/kg IV): Toxic
- compound toxicity [6, 7]: some compound toxicity is also observed
- growth of xenografts [6, 7]: inhibits the growth
- IC50 [4]: 6.3 nM
- Ratio [4]: 1.0

Reference: US7524849B2, “5-arylpyrimidines as anticancer agents” (Wyeth Holdings Corporation, priority 2003, dated 2009)
